Test results from the kinase profiling compilation of Christmann-Franck et al. (2016).
pKd: −log10 of the molar value.

Columns and labels:
Assay in all cases: KINOMEscan competition binding
DAPK2 (human) = DAPK2 (human) (UniProt Q9UIK4); details: compound 10.0 µM
PIM3 (human) = PIM3 (human) (UniProt Q86V86); details: compound 10.0 µM
PIK3CG (human) = PIK3CG (human) (UniProt P48736); details: compound 10.0 µM
HIPK1 (human) = HIPK1 (human) (UniProt Q86Z02); details: compound 10.0 µM
PIM1 (human) = PIM1 (human) (UniProt P11309); details: compound 10.0 µM
[1] = system: PIK3CA (human), P42336 [E545K]; details: compound 10.0 µM
PIM2 (human) = PIM2 (human) (UniProt Q9P1W9); details: compound 10.0 µM
CSNK2A2 (human) = CSNK2A2 (human) (UniProt P19784); details: compound 10.0 µM
MINK1 (human) = MINK1 (human) (UniProt Q8N4C8); details: compound 10.0 µM
ULK3 (human) = ULK3 (human) (UniProt Q6PHR2); details: compound 10.0 µM
[2] = system: ABL1 (human), P00519 [F317I]; details: compound 10.0 µM
GAK (human) = GAK (human) (UniProt O14976); details: for kinase still bound, per cent of control: compound 10.0 µM
MAPK7 (human) = MAPK7 (human) (UniProt Q13164)
ROS1 (human) = ROS1 (human) (UniProt P08922); details: compound 10.0 µM
PTK6 (human) = PTK6 (human) (UniProt Q13882)
NUAK1 (human) = NUAK1 (human) (UniProt O60285); details: compound 10.0 µM
PRKD1 (human) = PRKD1 (human) (UniProt Q15139); details: compound 10.0 µM
PRKD2 (human) = PRKD2 (human) (UniProt Q9BZL6); details: compound 10.0 µM
RPS6KA1 KD2 (human) = RPS6KA1 KD2 (human) (UniProt Q15418); details: compound 10.0 µM
[3] = system: KIT (human), P10721 [V559D]; details: compound 10.0 µM
CSF1R (human) = CSF1R (human) (UniProt P07333)
SGK110 (human) = SGK110 (human) (UniProt P0C264); details: compound 10.0 µM
FGFR4 (human) = FGFR4 (human) (UniProt P22455); details: compound 10.0 µM
MYLK4 (human) = MYLK4 (human) (UniProt Q86YV6); details: compound 10.0 µM
DCLK1 (human) = DCLK1 (human) (UniProt O15075); details: for kinase still bound, per cent of control: compound 10.0 µM
DCLK2 (human) = DCLK2 (human) (UniProt Q8N568); details: for kinase still bound, per cent of control: compound 10.0 µM
[4] = system: ABL1 (human), P00519 [F317L]; details: compound 10.0 µM
PDGFRB (human) = PDGFRB (human) (UniProt P09619); details: compound 10.0 µM
SRMS (human) = SRMS (human) (UniProt Q9H3Y6); details: compound 10.0 µM
TNK1 (human) = TNK1 (human) (UniProt Q13470)
RPS6KA6 KD2 (human) = RPS6KA6 KD2 (human) (UniProt Q9UK32); details: compound 10.0 µM
MKNK2 (human) = MKNK2 (human) (UniProt Q9HBH9); details: compound 10.0 µM
KIT (human) = KIT (human) (UniProt P10721); details: compound 10.0 µM
TNK2 (human) = TNK2 (human) (UniProt Q07912); details: compound 10.0 µM
PLK4 (human) = PLK4 (human) (UniProt O00444); details: compound 10.0 µM
CAMKK1 (human) = CAMKK1 (human) (UniProt Q8N5S9); details: compound 10.0 µM
PRKD3 (human) = PRKD3 (human) (UniProt O94806); details: compound 10.0 µM
RIPK2 (human) = RIPK2 (human) (UniProt O43353); details: compound 10.0 µM
FRK (human) = FRK (human) (UniProt P42685)
CHEK1 (human) = CHEK1 (human) (UniProt O14757); details: compound 10.0 µM
TSSK1B (human) = TSSK1B (human) (UniProt Q9BXA7); details: compound 10.0 µM
PLK1 (human) = PLK1 (human) (UniProt P53350); details: compound 10.0 µM
[5] = system: EIF2AK4 KD2 (human), Q9P2K8 [S808G]; details: compound 10.0 µM
RPS6KA4 KD2 (human) = RPS6KA4 KD2 (human) (UniProt O75676); details: compound 10.0 µM
PLK3 (human) = PLK3 (human) (UniProt Q9H4B4); details: compound 10.0 µM
TTK (human) = TTK (human) (UniProt P33981); details: compound 10.0 µM
STK33 (human) = STK33 (human) (UniProt Q9BYT3); details: compound 10.0 µM
MAP2K3 (human) = MAP2K3 (human) (UniProt P46734); details: compound 10.0 µM
ULK2 (human) = ULK2 (human) (UniProt Q8IYT8); details: compound 10.0 µM
DAPK3 (human) = DAPK3 (human) (UniProt O43293); details: compound 10.0 µM
RIOK2 (human) = RIOK2 (human) (UniProt Q9BVS4); details: compound 10.0 µM
RPS6KA2 KD2 (human) = RPS6KA2 KD2 (human) (UniProt Q15349); details: compound 10.0 µM

Chain of DCLK1 (human) (O15075 whole entry, looked up): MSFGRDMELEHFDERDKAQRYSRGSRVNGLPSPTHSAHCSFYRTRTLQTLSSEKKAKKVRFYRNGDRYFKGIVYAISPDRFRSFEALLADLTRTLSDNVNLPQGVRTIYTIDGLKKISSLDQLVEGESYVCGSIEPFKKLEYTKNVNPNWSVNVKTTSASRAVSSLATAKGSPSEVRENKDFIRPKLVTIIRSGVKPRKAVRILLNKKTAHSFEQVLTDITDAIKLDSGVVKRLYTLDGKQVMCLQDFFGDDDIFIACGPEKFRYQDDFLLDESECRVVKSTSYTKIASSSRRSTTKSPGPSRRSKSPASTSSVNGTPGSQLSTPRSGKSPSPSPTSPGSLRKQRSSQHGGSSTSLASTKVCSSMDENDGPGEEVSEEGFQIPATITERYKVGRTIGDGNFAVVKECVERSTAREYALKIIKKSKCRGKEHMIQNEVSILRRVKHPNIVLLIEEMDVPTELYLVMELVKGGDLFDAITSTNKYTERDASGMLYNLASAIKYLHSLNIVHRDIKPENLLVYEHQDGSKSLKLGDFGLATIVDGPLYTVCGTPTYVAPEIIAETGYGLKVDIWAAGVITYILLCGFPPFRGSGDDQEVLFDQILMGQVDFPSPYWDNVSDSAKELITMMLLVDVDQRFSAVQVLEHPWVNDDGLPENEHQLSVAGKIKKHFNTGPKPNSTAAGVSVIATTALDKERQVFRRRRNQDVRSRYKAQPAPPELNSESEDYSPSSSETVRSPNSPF
Chain of DCLK2 (human) (Q8N568 whole entry, looked up): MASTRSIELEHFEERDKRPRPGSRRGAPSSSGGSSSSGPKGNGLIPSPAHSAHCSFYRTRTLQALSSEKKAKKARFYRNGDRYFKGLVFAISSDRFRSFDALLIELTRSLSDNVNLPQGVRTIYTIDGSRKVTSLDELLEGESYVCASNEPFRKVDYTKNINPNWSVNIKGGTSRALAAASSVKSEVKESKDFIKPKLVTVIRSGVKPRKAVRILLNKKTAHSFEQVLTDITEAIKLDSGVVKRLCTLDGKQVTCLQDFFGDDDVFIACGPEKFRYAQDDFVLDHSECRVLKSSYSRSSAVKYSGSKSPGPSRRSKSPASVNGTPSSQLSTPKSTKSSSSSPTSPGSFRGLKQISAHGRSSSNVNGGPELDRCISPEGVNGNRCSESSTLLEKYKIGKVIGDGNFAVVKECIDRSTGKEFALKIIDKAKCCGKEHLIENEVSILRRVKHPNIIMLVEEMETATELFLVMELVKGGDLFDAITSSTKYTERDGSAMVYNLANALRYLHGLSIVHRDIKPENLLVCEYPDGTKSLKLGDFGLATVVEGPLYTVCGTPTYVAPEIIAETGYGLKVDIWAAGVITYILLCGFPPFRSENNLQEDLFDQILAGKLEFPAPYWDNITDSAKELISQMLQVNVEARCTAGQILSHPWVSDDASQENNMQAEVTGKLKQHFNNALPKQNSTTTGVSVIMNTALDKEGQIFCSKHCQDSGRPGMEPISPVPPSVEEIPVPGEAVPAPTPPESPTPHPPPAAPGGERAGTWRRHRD
Chain of GAK (human) (O14976 whole entry, looked up): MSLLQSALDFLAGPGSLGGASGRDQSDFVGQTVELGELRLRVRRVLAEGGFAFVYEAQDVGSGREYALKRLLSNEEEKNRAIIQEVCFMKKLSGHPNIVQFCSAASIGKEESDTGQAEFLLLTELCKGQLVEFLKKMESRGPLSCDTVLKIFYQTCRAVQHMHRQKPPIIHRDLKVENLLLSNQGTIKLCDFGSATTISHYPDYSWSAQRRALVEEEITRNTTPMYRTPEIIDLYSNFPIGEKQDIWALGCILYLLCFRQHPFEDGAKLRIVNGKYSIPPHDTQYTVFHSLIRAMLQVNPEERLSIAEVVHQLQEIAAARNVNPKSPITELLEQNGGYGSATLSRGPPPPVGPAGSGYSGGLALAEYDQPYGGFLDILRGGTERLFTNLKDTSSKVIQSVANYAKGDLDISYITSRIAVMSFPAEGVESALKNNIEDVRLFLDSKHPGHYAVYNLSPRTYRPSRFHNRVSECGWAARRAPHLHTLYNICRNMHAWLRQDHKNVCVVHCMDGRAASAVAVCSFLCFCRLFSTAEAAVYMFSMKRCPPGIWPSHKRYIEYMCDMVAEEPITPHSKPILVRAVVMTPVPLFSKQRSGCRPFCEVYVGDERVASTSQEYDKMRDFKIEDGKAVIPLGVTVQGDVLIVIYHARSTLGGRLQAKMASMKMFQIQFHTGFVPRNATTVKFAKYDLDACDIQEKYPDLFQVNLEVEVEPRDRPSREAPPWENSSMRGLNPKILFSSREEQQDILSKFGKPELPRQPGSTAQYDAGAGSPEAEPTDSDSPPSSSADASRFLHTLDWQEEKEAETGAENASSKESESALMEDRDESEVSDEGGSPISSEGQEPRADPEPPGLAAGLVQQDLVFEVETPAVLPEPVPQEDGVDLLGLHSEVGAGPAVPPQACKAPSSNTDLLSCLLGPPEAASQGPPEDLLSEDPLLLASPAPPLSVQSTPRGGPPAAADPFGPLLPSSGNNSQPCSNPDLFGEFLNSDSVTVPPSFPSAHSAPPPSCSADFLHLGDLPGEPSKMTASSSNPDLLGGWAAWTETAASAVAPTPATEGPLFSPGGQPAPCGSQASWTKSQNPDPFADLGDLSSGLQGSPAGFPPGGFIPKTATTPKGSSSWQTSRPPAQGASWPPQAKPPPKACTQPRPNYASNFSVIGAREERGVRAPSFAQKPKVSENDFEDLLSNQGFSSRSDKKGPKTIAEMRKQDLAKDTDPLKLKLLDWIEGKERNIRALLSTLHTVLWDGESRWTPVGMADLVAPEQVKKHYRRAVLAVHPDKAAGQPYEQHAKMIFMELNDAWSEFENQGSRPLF
Chain of PTK6 (human) (Q13882 whole entry, looked up): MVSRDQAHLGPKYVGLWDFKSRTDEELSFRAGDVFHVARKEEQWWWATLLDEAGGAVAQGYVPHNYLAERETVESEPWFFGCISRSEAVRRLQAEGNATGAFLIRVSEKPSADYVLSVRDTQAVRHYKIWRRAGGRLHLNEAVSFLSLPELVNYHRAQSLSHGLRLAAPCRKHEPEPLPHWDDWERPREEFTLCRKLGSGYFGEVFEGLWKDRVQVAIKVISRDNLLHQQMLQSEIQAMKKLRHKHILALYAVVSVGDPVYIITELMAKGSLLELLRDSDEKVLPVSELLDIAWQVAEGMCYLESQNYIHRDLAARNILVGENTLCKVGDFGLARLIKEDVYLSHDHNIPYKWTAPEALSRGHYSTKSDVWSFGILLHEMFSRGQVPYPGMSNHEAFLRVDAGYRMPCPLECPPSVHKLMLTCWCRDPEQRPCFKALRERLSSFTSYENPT
Chain of TNK1 (human) (Q13470 whole entry, looked up): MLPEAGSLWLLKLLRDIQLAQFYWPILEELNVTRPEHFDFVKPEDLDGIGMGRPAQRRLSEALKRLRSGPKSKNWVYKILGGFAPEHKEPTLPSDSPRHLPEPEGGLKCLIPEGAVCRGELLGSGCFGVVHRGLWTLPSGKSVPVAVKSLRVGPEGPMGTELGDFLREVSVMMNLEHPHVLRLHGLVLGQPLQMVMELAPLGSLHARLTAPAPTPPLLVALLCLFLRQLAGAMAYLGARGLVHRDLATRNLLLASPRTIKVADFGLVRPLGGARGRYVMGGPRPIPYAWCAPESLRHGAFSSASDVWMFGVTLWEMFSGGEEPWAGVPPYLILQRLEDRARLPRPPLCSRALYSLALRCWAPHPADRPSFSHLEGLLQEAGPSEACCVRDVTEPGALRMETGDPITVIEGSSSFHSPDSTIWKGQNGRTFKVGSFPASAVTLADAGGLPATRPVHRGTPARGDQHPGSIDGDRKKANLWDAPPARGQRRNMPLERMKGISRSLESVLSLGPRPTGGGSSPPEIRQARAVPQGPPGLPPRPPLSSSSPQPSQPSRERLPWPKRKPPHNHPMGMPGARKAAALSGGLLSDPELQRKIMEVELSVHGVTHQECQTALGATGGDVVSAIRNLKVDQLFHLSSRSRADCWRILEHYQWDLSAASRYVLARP
Chain of CSF1R (human) (P07333 whole entry, looked up): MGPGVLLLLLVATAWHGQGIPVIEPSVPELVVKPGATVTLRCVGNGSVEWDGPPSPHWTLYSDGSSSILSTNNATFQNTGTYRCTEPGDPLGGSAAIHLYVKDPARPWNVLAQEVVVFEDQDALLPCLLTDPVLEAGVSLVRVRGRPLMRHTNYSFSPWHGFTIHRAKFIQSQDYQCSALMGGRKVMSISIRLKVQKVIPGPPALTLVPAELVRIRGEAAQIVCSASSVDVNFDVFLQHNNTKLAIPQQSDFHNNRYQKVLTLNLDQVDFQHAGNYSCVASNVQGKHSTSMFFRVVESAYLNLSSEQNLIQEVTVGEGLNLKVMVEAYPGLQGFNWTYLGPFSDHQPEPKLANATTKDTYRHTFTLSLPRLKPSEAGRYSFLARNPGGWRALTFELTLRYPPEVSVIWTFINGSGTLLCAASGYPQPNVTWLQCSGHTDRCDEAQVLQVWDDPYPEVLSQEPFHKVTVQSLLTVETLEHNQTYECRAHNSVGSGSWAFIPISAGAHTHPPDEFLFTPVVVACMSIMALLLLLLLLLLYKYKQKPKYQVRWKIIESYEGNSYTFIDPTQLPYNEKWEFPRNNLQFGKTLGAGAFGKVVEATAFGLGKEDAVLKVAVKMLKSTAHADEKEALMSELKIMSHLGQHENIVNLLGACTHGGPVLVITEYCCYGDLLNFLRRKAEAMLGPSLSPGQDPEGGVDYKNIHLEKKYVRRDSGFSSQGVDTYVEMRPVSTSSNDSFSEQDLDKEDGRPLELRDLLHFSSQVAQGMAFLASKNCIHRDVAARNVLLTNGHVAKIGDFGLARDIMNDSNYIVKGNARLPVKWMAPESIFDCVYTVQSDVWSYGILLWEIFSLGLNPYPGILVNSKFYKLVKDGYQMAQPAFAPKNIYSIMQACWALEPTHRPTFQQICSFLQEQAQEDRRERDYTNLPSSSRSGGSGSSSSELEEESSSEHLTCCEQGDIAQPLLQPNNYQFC

NS(=O)(=O)c1ccc(-c2cccc(/C=C3\SC(=O)NC3=O)c2)cc1
kinase still bound, per cent of control (DAPK2 (human)): 26% | kinase still bound, per cent of control (PIM3 (human)): 5.1% | kinase still bound, per cent of control (PIK3CG (human)): 10% | kinase still bound, per cent of control (HIPK1 (human)): 2.2% | kinase still bound, per cent of control (PIM1 (human)): 4.2% | kinase still bound, per cent of control [1]: 16% | kinase still bound, per cent of control (PIM2 (human)): 1.4% | kinase still bound, per cent of control (CSNK2A2 (human)): 4.2% | kinase still bound, per cent of control (MINK1 (human)): 30% | kinase still bound, per cent of control (ULK3 (human)): 18%

COc1cc(N2CCN(C)CC2)ccc1Nc1ncc2c(n1)N(C)c1ccccc1C(=O)N2
kinase still bound, per cent of control [2]: 3.9% | pKd (GAK (human)): 6.57 | kinase still bound, per cent of control (GAK (human)): 3.8% | pKd (MAPK7 (human)): 6.17 | kinase still bound, per cent of control (MAPK7 (human); compound 10.0 µM): 0.5% | kinase still bound, per cent of control (ROS1 (human)): 17% | pKd (PTK6 (human)): 7.43 | kinase still bound, per cent of control (PTK6 (human); compound 10.0 µM): 0.15% | kinase still bound, per cent of control (NUAK1 (human)): 29% | kinase still bound, per cent of control (PRKD1 (human)): 21% | kinase still bound, per cent of control (PRKD2 (human)): 22% | kinase still bound, per cent of control (RPS6KA1 KD2 (human)): 21% | kinase still bound, per cent of control [3]: 22% | pKd (CSF1R (human)): 6.48 | kinase still bound, per cent of control (CSF1R (human); compound 10.0 µM): 1% | kinase still bound, per cent of control (SGK110 (human)): 31% | kinase still bound, per cent of control (FGFR4 (human)): 34% | kinase still bound, per cent of control (MYLK4 (human)): 2.2% | pKd (DCLK1 (human)): 6.55 | kinase still bound, per cent of control (DCLK1 (human)): 0.9% | pKd (DCLK2 (human)): 6.16 | kinase still bound, per cent of control (DCLK2 (human)): 1.4% | kinase still bound, per cent of control [4]: 8% | kinase still bound, per cent of control (PDGFRB (human)): 29% | kinase still bound, per cent of control (SRMS (human)): 18% | pKd (TNK1 (human)): 6.96 | kinase still bound, per cent of control (TNK1 (human); compound 10.0 µM): 2.4% | kinase still bound, per cent of control (RPS6KA6 KD2 (human)): 14% | kinase still bound, per cent of control (MKNK2 (human)): 27% | kinase still bound, per cent of control (KIT (human)): 12% | kinase still bound, per cent of control (TNK2 (human)): 0.3% | kinase still bound, per cent of control (PLK4 (human)): 8.2% | kinase still bound, per cent of control (CAMKK1 (human)): 28% | kinase still bound, per cent of control (PRKD3 (human)): 32% | kinase still bound, per cent of control (RIPK2 (human)): 24% | pKd (FRK (human)): 7.02 | kinase still bound, per cent of control (FRK (human); compound 10.0 µM): 0.8%

COc1cc(N2CCN(C)CC2)ccc1Nc1ncc2c(n1)N1CCC[C@H]1CC(=O)N2C
kinase still bound, per cent of control (CHEK1 (human)): 16% | kinase still bound, per cent of control (TSSK1B (human)): 23% | kinase still bound, per cent of control (GAK (human)): 6.2% | kinase still bound, per cent of control (PRKD1 (human)): 15% | kinase still bound, per cent of control (PLK1 (human)): 2.4% | kinase still bound, per cent of control (PRKD2 (human)): 2.6% | kinase still bound, per cent of control [5]: 18% | kinase still bound, per cent of control (RPS6KA1 KD2 (human)): 28% | kinase still bound, per cent of control (RPS6KA4 KD2 (human)): 33% | kinase still bound, per cent of control (PLK3 (human)): 3.6% | kinase still bound, per cent of control (DCLK1 (human)): 0.75% | kinase still bound, per cent of control (DCLK2 (human)): 3.6% | kinase still bound, per cent of control (TTK (human)): 2.6% | kinase still bound, per cent of control (STK33 (human)): 5% | kinase still bound, per cent of control (RPS6KA6 KD2 (human)): 8.6% | kinase still bound, per cent of control (MAP2K3 (human)): 0.4% | kinase still bound, per cent of control (ULK2 (human)): 19% | kinase still bound, per cent of control (DAPK3 (human)): 28% | kinase still bound, per cent of control (RIOK2 (human)): 0.2% | kinase still bound, per cent of control (RPS6KA2 KD2 (human)): 9.4%
